Experimental findings from patent US20100069421A1, “COMPOSITIONS AND METHODS FOR THE TREATMENT OF RADIATION PROCTOSIGMOITIS” (priority 2006, published 2010) are described below.

Molecules are shown by their SMILES.

In the test the test system is patient experiencing radiation induced enteritis. In words: Administration of rifaximin to a patient experiencing radiation induced enteritis. In kind it is in vivo, human. Conditions: no data shown. An excerpt: The recognition of bacteria as primarily causative of the symptomatology seen in cancer patients represents a paradigm shift in that bacterial colonization, overgrowth, and/or invasion are a potentially curable or controllable source of a patient's discomfort. Furthermore, this represents a paradigm shift in that prior measures commonly used in the amelioration of such problems were supportive in nature, addressing the symptoms of these conditions and not the root cause itself. This permits greater targeting of the symptoms' cause and results in improved efficacy of symptom amelioration, while at the same time causing fewer adverse effects, as would be commonly seen with supportive measures such as traditional anti-diarrheals. […] Furthermore, it enables the physician to treat the cause of the symptoms in such a way that suboptimally effective supportive measures can not. This is seen in terms of greater targeting of therapy, fewer drug interactions, and improved tolerance to therapy. Particular benefit is seen with this therapy because it may prevent or ameliorate symptoms that would otherwise necessitate a break in treatment to allow the patient to recover from their symptoms. […]

In the case of `CO[C@H]1/C=C/O[C@@]2(C)Oc3c(C)c(O)c4c(O)c(c5c(nc6cc(C)ccn65)c4c3C2=O)NC(=O)/C(C)=C\C=C\[C@H](C)[C@H](O)[C@@H](C)[C@@H](O)[C@@H](C)[C@H](OC(C)=O)[C@@H]1C` [Rifaximin], the “symptoms of radiation induced enteritis” value is reported as “reduces symptoms of the condition”.
